Results from paper PMC11590106, “Computational Model-Assisted Development of a Nonenzymatic Fluorescent Glucose-Sensing Assay” (ACS Sensors, 2024).

Assays:
Concanavalin A (ConA) [1] = target: T1, Concanavalin A (ConA) (Canavalia ensiformis, UniProt P02866); experiment: fluorescence anisotropy titration (association constant Ka); assay type: binding; design: ConA Type IV (Sigma), PEGylated (5 kDa mPEG); tetramer treated as one protein
Concanavalin A (ConA) [2] = target: T1, Concanavalin A (ConA); experiment: competitive fluorescence anisotropy, displacement of Cy5.5-mannotetraose from PEG-ConA; assay type: binding; design: ConA Type IV (Sigma), PEGylated (5 kDa mPEG)

T1 sequence (P02866 164-281 limits assumed): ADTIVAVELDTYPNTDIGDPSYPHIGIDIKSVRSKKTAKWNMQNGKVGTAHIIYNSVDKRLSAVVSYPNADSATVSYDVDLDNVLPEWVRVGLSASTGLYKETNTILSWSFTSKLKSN
T1 sequence (P02866 30-148 limits assumed): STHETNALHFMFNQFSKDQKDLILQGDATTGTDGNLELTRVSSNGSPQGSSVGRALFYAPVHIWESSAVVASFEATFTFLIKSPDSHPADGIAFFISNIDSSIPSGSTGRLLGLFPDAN

| Compound | fluorescence anisotropy titration (association constant Ka) (Concanavalin A (ConA) [1]) | competitive fluorescence anisotropy, displacement of Cy5.5-mannotetraose from PE (Concanavalin A (ConA) [2]) |
| --- | --- | --- |
| Cy5.5-mannotriose | 5.33 × 10^6 M^–1 |  |
| OC[C@H]1OC(O)[C@H](O)[C@@H](O)[C@@H]1O (stereo partly drawn) [glucose] |  | a sensitive response of the assay was observed for various glucose concentrations within the physiological range |
| Cy5.5-mannobiose | 1.73 × 10^6 M^–1 |  |
